These results are taken from US10004701B2, “Methods and compositions for treating infection” (UNIVERSITY OF ROCHESTER, priority 2012, dated 2018).

What all share (assay): AK assay 384-well format, Prestwick library screening
One assay concerns E. coli. It is filed as cell-based, Escherichia coli. The settings on record: 50 μM final drug concentration; for fold induction at 50 µM: Escherichia coli, 3 h.
The test system of a further assay is K. pneumoniae. The format is cell-based, Klebsiella pneumoniae. The settings on record: 50 μM final drug concentration; for fold induction at 50 µM: Klebsiella pneumoniae, 3 h.
For another assay, the system named is E. cloacae. The format is cell-based, Enterobacter cloacae. The settings on record: 50 μM final drug concentration; for fold induction at 50 µM: Enterobacter cloacae, 3 h.
Assay [1] concerns S. aureus strain USA300-0114. The format is cell-based, Staphylococcus aureus. The settings on record: 50 μM final drug concentration; for fold induction at 50 µM: Staphylococcus aureus, USA300, 3 h.
The test system of another assay is P. aeruginosa. It is filed as cell-based, Pseudomonas aeruginosa. The settings on record: 50 μM final drug concentration; for fold induction at 50 µM: Pseudomonas aeruginosa, 3 h.
The subject of a further assay is E. faecium. The format is cell-based, Enterococcus faecium. The settings on record: 50 μM final drug concentration; for fold induction at 50 µM: Enterococcus faecium, 3 h.
The subject of assay [2] is A. baumannii strain 98-37-09. The format is cell-based, Acinetobacter baumannii. The settings on record: 50 μM final drug concentration; for fold induction at 50 µM: Acinetobacter baumannii, 983709, 3 h.
Setting [3] is: planktonic, cutoff for positive-scoring molecules 3-fold increase, read-out: AK-based Prestwick Library Screening Results, E. coli (fold increase in extracellular AK activity).
The mark [4] stands for this setting: planktonic, cutoff for positive-scoring molecules 3-fold increase, read-out: AK-based Prestwick Library Screening Results, K. pneumoniae (fold increase in extracellular AK activity).
The mark [5] stands for this setting: planktonic, cutoff for positive-scoring molecules 3-fold increase, read-out: AK-based Prestwick Library Screening Results, E. cloacae (fold increase in extracellular AK activity).
The mark [6] stands for this setting: planktonic, cutoff for positive-scoring molecules 3-fold increase, read-out: AK-based Prestwick Library Screening Results, S. aureus (fold increase in extracellular AK activity).
Where [7] appears, read: planktonic, cutoff for positive-scoring molecules 3-fold increase, read-out: AK-based Prestwick Library Screening Results, P. aeruginosa (fold increase in extracellular AK activity).
Where [8] appears, read: planktonic, cutoff for positive-scoring molecules 3-fold increase, read-out: AK-based Prestwick Library Screening Results, E. faecium (fold increase in extracellular AK activity).
The mark [9] stands for this setting: planktonic, cutoff for positive-scoring molecules 3-fold increase, read-out: AK-based Prestwick Library Screening Results, A. baumannii (fold increase in extracellular AK activity).
The mark [10] stands for this setting: 384-well format, cutoff for positive-scoring molecules 3-fold increase, read-out: AK-based Prestwick Library Screening Results, E. coli (increase in extracellular AK activity).
Where [11] appears, read: 384-well format, cutoff for positive-scoring molecules 3-fold increase, read-out: AK-based Prestwick Library Screening Results, K. pneumoniae (increase in extracellular AK activity).
[12] abbreviates: 384-well format, cutoff for positive-scoring molecules 3-fold increase, read-out: AK-based Prestwick Library Screening Results, E. cloacae (increase in extracellular AK activity).
[13] abbreviates: 384-well format, cutoff for positive-scoring molecules 3-fold increase, read-out: AK-based Prestwick Library Screening Results, S. aureus (increase in extracellular AK activity).
The mark [14] stands for this setting: 384-well format, cutoff for positive-scoring molecules 3-fold increase, read-out: AK-based Prestwick Library Screening Results, P. aeruginosa (increase in extracellular AK activity).
[15] abbreviates: 384-well format, cutoff for positive-scoring molecules 3-fold increase, read-out: AK-based Prestwick Library Screening Results, E. faecium (increase in extracellular AK activity).
Where [16] appears, read: 384-well format, cutoff for positive-scoring molecules 3-fold increase, read-out: AK-based Prestwick Library Screening Results, A. baumannii (increase in extracellular AK activity).

Where a name gives a salt, the structure may show the parent alone. Read-outs that look alike come from different tables or passages of the source.

For the compound `C[C@]12CC[C@@H]3c4ccc(O)cc4CC[C@H]3[C@@H]1CC[C@@H]2O` [Estradiol-17 beta], the “AK-based Prestwick Library Screening Results, E. coli (increase in extracellular AK activity)” value in the assay on E. coli (planktonic E. coli, cutoff for positive-scoring molecules 3-fold increase) worked out at 1.1. Besides, the “AK-based Prestwick Library Screening Results, K. pneumoniae (increase in extracellular AK activity)” value in the assay on K. pneumoniae (planktonic K. pneumoniae, cutoff for positive-scoring molecules 3-fold increase) is 0.8. The “AK-based Prestwick Library Screening Results, E. cloacae (increase in extracellular AK activity)” value with E. cloacae (planktonic E. cloacae, cutoff for positive-scoring molecules 3-fold increase) is 1.3. Further, the “AK-based Prestwick Library Screening Results, S. aureus (increase in extracellular AK activity)” value in assay [1] (planktonic S. aureus, cutoff for positive-scoring molecules 3-fold increase) amounted to 0.8. Also, in the assay with P. aeruginosa (planktonic P. aeruginosa, cutoff for positive-scoring molecules 3-fold increase), the “AK-based Prestwick Library Screening Results, P. aeruginosa (increase in extracellular AK activity)” value is listed as 1.0. Further, in the assay with E. faecium (planktonic E. faecium, cutoff for positive-scoring molecules 3-fold increase), the “AK-based Prestwick Library Screening Results, E. faecium (increase in extracellular AK activity)” value is given as 0.9. Also, the “AK-based Prestwick Library Screening Results, A. baumannii (increase in extracellular AK activity)” value in assay [2] (planktonic A. baumannii, cutoff for positive-scoring molecules 3-fold increase) came to 0.8.
As for `C[C@]12CC[C@@H]3c4ccc(O)cc4CC[C@H]3[C@@H]1C[C@@H](O)[C@@H]2O` [Estriol], the fold induction at 50 µM was 1.1 with E. coli (planktonic E. coli, positive cutoff 3-fold increase, read-out: AK-based Prestwick library screening result, E. coli (fold increase in extracellular AK activity)); 0.8 with K. pneumoniae (planktonic K. pneumoniae, positive cutoff 3-fold increase, read-out: AK-based Prestwick library screening result, K. pneumoniae (fold increase in extracellular AK activity)); 1.4 in the assay with E. cloacae (planktonic E. cloacae, positive cutoff 3-fold increase, read-out: AK-based Prestwick library screening result, E. cloacae (fold increase in extracellular AK activity)); 1.2 in assay [1] (planktonic S. aureus, positive cutoff 3-fold increase, read-out: AK-based Prestwick library screening result, S. aureus (fold increase in extracellular AK activity)); 1 in the assay with P. aeruginosa (planktonic P. aeruginosa, positive cutoff 3-fold increase, read-out: AK-based Prestwick library screening result, P. aeruginosa (fold increase in extracellular AK activity)); 1.1 with E. faecium (planktonic E. faecium, positive cutoff 3-fold increase, read-out: AK-based Prestwick library screening result, E. faecium (fold increase in extracellular AK activity)). Besides, in assay [2] (planktonic A. baumannii, positive cutoff 3-fold increase, read-out: AK-based Prestwick library screening result, A. baumannii (fold increase in extracellular AK activity)), the fold induction at 50 µM is 1.2.
As to `C[C@]12CC[C@@H]3c4ccc(O)cc4CC[C@H]3[C@@H]1CCC2=O` [Estrone], the fold induction at 50 µM in the assay on E. coli (setting [3]) is 0.8; in the assay with K. pneumoniae (setting [4]), 0.7; in the assay with E. cloacae (setting [5]) it was 1.4; in assay [1] (setting [6]), 0.7; in the assay on P. aeruginosa (setting [7]), 0.8; in the assay with E. faecium (setting [8]), 0.8. Also, in assay [2] (setting [9]), the fold induction at 50 µM is 0.8.
`C[C@]12CC[C@@H]3c4ccc(OS(=O)(=O)O)cc4CC[C@H]3[C@@H]1CCC2=O` [Estropipate]: the fold induction at 50 µM in the assay with E. coli (setting [3]) was determined as 1.1; with K. pneumoniae (setting [4]), 1; in the assay with E. cloacae (setting [5]), 1.3; in assay [1] (setting [6]) it was 1.1; in the assay with P. aeruginosa (setting [7]), 1.1; with E. faecium (setting [8]), 1. The fold induction at 50 µM in assay [2] (setting [9]) was determined as 1.
With `O=C(Cn1ccnc1[N+](=O)[O-])NCCO` [Etanidazole], the fold induction at 50 µM turned out to be 0.5 with E. coli (setting [3]); 0.5 in the assay on K. pneumoniae (setting [4]); 0.4 with E. cloacae (setting [5]); 0.4 in assay [1] (setting [6]); 0.4 in the assay with P. aeruginosa (setting [7]); 0.8 with E. faecium (setting [8]). In assay [2] (setting [9]), the fold induction at 50 µM was 0.5.
As to `C=C(CC)C(=O)c1ccc(OCC(=O)O)c(Cl)c1Cl` [Ethacrynic acid], the fold induction at 50 µM in the assay with E. coli (setting [10]) turned out to be 0.7; with K. pneumoniae (setting [11]), 0.6; in the assay with E. cloacae (setting [12]), 0.8; in assay [1] (setting [13]) it was 1.4; in the assay with P. aeruginosa (setting [14]), 0.7; with E. faecium (setting [15]) it was 1.3. For the same compound, in assay [2] (setting [16]), the fold induction at 50 µM worked out at 0.8.
As to `CC[C@@H](CO)NCCN[C@@H](CC)CO` [Ethambutol dihydrochloride], the fold induction at 50 µM in the assay with E. coli (setting [10]) was 0.9; in the assay on K. pneumoniae (setting [11]), 0.7; in the assay on E. cloacae (setting [12]) it was 1.1; in assay [1] (setting [13]), 0.6; with P. aeruginosa (setting [14]) it was 0.7; with E. faecium (setting [15]), 0.9. The fold induction at 50 µM in assay [2] (setting [16]) came to 0.8.
On to `CCN(CC)C(=O)c1ccc(O)c(OC)c1` [Ethamivan], for which the fold induction at 50 µM was determined as 0.6 with E. coli (planktonic E. coli, cutoff for positive-scoring molecules 3-fold increase, read-out: AK-based Prestwick Library Screening Results, E. coli (increase in extracellular AK activity)); 0.6 in the assay on K. pneumoniae (planktonic K. pneumoniae, cutoff for positive-scoring molecules 3-fold increase, read-out: AK-based Prestwick Library Screening Results, K. pneumoniae (increase in extracellular AK activity)); 0.9 in the assay on E. cloacae (planktonic E. cloacae, cutoff for positive-scoring molecules 3-fold increase, read-out: AK-based Prestwick Library Screening Results, E. cloacae (increase in extracellular AK activity)); 0.6 in assay [1] (planktonic S. aureus, cutoff for positive-scoring molecules 3-fold increase, read-out: AK-based Prestwick Library Screening Results, S. aureus (increase in extracellular AK activity)); 0.6 in the assay with P. aeruginosa (planktonic P. aeruginosa, cutoff for positive-scoring molecules 3-fold increase, read-out: AK-based Prestwick Library Screening Results, P. aeruginosa (increase in extracellular AK activity)); 1 in the assay on E. faecium (planktonic E. faecium, cutoff for positive-scoring molecules 3-fold increase, read-out: AK-based Prestwick Library Screening Results, E. faecium (increase in extracellular AK activity)). Further, the fold induction at 50 µM in assay [2] (planktonic A. baumannii, cutoff for positive-scoring molecules 3-fold increase, read-out: AK-based Prestwick Library Screening Results, A. baumannii (increase in extracellular AK activity)) turned out to be 0.9.
With `O=S(=O)(O)c1cc(O)ccc1O` [Ethamsylate], the fold induction at 50 µM amounted to 1.2 in the assay with E. coli (planktonic E. coli, […], read-out: AK-based Prestwick library screening result, E. coli (fold increase in extracellular AK activity)); 1.1 in the assay with K. pneumoniae (planktonic K. pneumoniae, […], read-out: AK-based Prestwick library screening result, K. pneumoniae (fold increase in extracellular AK activity)); 0.8 with E. cloacae (planktonic E. cloacae, […], read-out: AK-based Prestwick library screening result, E. cloacae (fold increase in extracellular AK activity)); 1 in assay [1] (planktonic S. aureus, […], read-out: AK-based Prestwick library screening result, S. aureus (fold increase in extracellular AK activity)); 1 with P. aeruginosa (planktonic P. aeruginosa, […], read-out: AK-based Prestwick library screening result, P. aeruginosa (fold increase in extracellular AK activity)); 0.9 with E. faecium (planktonic E. faecium, […], read-out: AK-based Prestwick library screening result, E. faecium (fold increase in extracellular AK activity)). The fold induction at 50 µM in assay [2] (planktonic A. baumannii, […], read-out: AK-based Prestwick library screening result, A. baumannii (fold increase in extracellular AK activity)) came to 1.2.
For `CCOc1ccc(Cc2nccc3cc(OCC)c(OCC)cc23)cc1OCC` [Ethaverine hydrochloride], the fold induction at 50 µM in the assay with E. coli (setting [3]) was 0.9; in the assay with K. pneumoniae (setting [4]), 0.7; in the assay on E. cloacae (setting [5]), 1; in assay [1] (setting [6]) it was 0.5; with P. aeruginosa (setting [7]), 0.9; in the assay on E. faecium (setting [8]), 1. The fold induction at 50 µM in assay [2] (setting [9]) is 0.9.
